# Experimental data reported in patent publication US9474790B2, “Stable, protracted GLP-1/glucagon receptor co-agonists for medical use” (Novo Nordisk A/S, priority 2013, dated 2016).
# Numbered stars: 1 amine (or outer) side, 2 acyl side, 3 side chain; on linkers, the order of the positions; unused ones are H or OH. Square brackets hold non-standard residues; d marks the D form. Side chains are listed from the residue outwards. Peptide text beside a SMILES is read from it. * marks the point of attachment. C18 diacid = O=C(O)CCCCCCCCCCCCCCCCC(=O)*; γGlu = O=C(O)[C@H](CCC(=O)[*:2])N[*:1]; Ac4c = NC1(C(=O)O)CCC1; AEEA = NCCOCCOCC(=O)O; Aib = CC(C)(N)C(=O)O
# Experiments:
# [1] = molecular target: T1, human GLP-1 receptor (Homo sapiens, UniProt P43220); assay: GLP-1 receptor potency, CRE luciferase reporter gene assay in BHK cells; type: cell-based; conditions: BHK cells expressing human GLP-1 receptor, read-out: EC50 GLP-1R
# T1 construct: expressed in transfected cells; host or cells: BHK cells (parent BHKTS13), clone FCW467-12A/KZ10-1, with CRE luciferase
# T1 sequence (P43220 24-463): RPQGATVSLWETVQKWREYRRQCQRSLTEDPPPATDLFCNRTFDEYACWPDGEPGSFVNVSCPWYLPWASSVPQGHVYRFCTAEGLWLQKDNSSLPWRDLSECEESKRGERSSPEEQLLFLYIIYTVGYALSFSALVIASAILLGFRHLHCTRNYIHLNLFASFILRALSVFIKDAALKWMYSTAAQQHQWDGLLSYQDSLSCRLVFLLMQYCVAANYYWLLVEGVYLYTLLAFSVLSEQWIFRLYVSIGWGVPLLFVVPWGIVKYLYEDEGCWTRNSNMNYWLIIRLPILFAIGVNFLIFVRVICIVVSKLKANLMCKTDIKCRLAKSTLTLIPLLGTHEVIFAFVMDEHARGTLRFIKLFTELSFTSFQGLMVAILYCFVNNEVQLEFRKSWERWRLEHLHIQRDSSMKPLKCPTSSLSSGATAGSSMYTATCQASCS
# Summary of the method: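 BHK cells stably expressing human GLP-1 receptor with CRE-luciferase reporter, 5×10EE3 cells/well in phenol red-free DMEM with 10 mM Hepes, 2% ovalbumin, 0.2% Pluronic F-68. Compounds at final 1×10EE-6 to 1×10EE-13 M, 3 h at 37° C; steadylite luminescence; EC50 by four-parameter fit, in pM.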
# [2] = Thioflavin T (ThT) fibrillation assay for physical stability; type: physicochemical; conditions: 250 μM in 10 mM HEPES buffer, pH 7.5, 37° C., shaking 960 rpm
# Summary of the method: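 Peptide at 250 μM in 10 mM HEPES pH 7.5 with 1 μM ThT, at 37° C with 960 rpm orbital shaking. Fluorescence (ex 444/em 485 nm) read every 20 min after 10 min pre-incubation; sigmoidal fit gives lag time (t0−2τ) and kapp (1/τ). Recovery is RP-HPLC peptide in the centrifuged, 0.22 μm-filtered supernatant as % of initial.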
EC50 [1] [pM],THT assay Lag time (Ex. 76) [2] [h],SMILES
6,20,"CC(C)C[C@H](NC(=O)[C@H](Cc1ccc(O)cc1)NC(=O)[C@H](CCCCN)NC(=O)[C@H](CO)NC(=O)[C@H](CC(C)C)NC(=O)[C@H](CC(=O)O)NC(=O)[C@H](CO)NC(=O)[C@@H](NC(=O)[C@H](Cc1ccccc1)NC(=O)[C@@H](NC(=O)CNC(=O)[C@H](CCC(N)=O)NC(=O)C1(NC(=O)[C@@H](N)Cc2c[nH]cn2)CCC1)[C@@H](C)O)[C@@H](C)O)C(=O)N[C@@H](CCC(=O)O)C(=O)N[C@@H](CO)C(=O)N[C@@H](CCCNC(=N)N)C(=O)N[C@@H](CCCNC(=N)N)C(=O)N[C@@H](C)C(=O)N[C@@H](CCCNC(=N)N)C(=O)N[C@@H](CCC(=O)O)C(=O)N[C@@H](Cc1ccccc1)C(=O)N[C@H](C(=O)N[C@@H](CCC(N)=O)C(=O)N[C@@H](Cc1c[nH]c2ccccc12)C(=O)N[C@@H](CC(C)C)C(=O)N[C@@H](CC(C)C)C(=O)N[C@@H](CCCCNC(=O)CC[C@H](NC(=O)CC[C@H](NC(=O)COCCOCCNC(=O)COCCOCCNC(=O)CC[C@H](NC(=O)CC[C@H](NC(=O)CCCCCCCCCCCCCCCCC(=O)O)C(=O)O)C(=O)O)C(=O)O)C(=O)O)C(=O)N[C@H](C(N)=O)[C@@H](C)O)C(C)C [Example 61, N^ε28-[(4S)-4-carboxy-4-[[(4S)-4-carboxy-4-[[2-[2-[2-[[2-[2-[2-[[(4S)-4-carboxy-4-[[(4S)-4-carboxy-4-(17-carboxyheptadecanoylamino)butanoyl]amino]butanoyl]amino]ethoxy]ethoxy]acetyl]amino]ethoxy]ethoxy]acetyl]amino]butanoyl]amino]butanoyl]-[Acb2,Leu10,Glu15,Arg20,Glu21,Leu27,Lys28]-Glucagon amide] (H-H[Ac4c]QGTFTSDLSKYLESRRAREFVQWLLK([γGlu-γGlu-AEEA-AEEA-γGlu-γGlu-C18 diacid])T-NH2; N-terminus assumed)"
7,45,"CC(C)C[C@H](NC(=O)[C@H](Cc1ccc(O)cc1)NC(=O)[C@H](CCCCN)NC(=O)[C@H](CO)NC(=O)[C@H](CC(C)C)NC(=O)[C@H](CC(=O)O)NC(=O)[C@H](CO)NC(=O)[C@@H](NC(=O)[C@H](Cc1ccccc1)NC(=O)[C@@H](NC(=O)CNC(=O)[C@H](CCC(N)=O)NC(=O)C1(NC(=O)[C@@H](N)Cc2c[nH]cn2)CCC1)[C@@H](C)O)[C@@H](C)O)C(=O)N[C@@H](CCC(=O)O)C(=O)N[C@@H](CO)C(=O)N[C@@H](CCCNC(=N)N)C(=O)N[C@@H](CCCNC(=N)N)C(=O)N[C@@H](C)C(=O)N[C@@H](CCC(N)=O)C(=O)N[C@@H](CC(=O)O)C(=O)N[C@@H](Cc1ccccc1)C(=O)N[C@H](C(=O)N[C@@H](CCC(N)=O)C(=O)N[C@@H](Cc1c[nH]c2ccccc12)C(=O)N[C@@H](CC(C)C)C(=O)N[C@@H](CC(C)C)C(=O)N[C@@H](CCCCNC(=O)COCCOCCNC(=O)COCCOCCNC(=O)CC[C@H](NC(=O)CC[C@H](NC(=O)CC[C@H](NC(=O)CCCCCCCCCCCCCCCCC(=O)O)C(=O)O)C(=O)O)C(=O)O)C(=O)N[C@H](C(N)=O)[C@@H](C)O)C(C)C [Example 63, N^ε28-[2-[2-[2-[[2-[2-[2-[[(4S)-4-carboxy-4-[[(4S)-4-carboxy-4-[[(4S)-4-carboxy-4-(17-carboxyheptadecanoylamino)butanoyl]amino]butanoyl]amino]butanoyl]amino]ethoxy]ethoxy]acetyl]amino]ethoxy]ethoxy]acetyl]-[Acb2,Leu10,Glu15,Leu27,Lys28]-Glucagon amide] (H-H[Ac4c]QGTFTSDLSKYLESRRAQDFVQWLLK([AEEA-AEEA-γGlu-γGlu-γGlu-C18 diacid])T-NH2; N-terminus assumed)"
6,45,CC(C)C[C@H](NC(=O)[C@H](Cc1ccc(O)cc1)NC(=O)[C@H](CCCCN)NC(=O)[C@H](CO)NC(=O)[C@H](CC(C)C)NC(=O)[C@H](CC(=O)O)NC(=O)[C@H](CO)NC(=O)[C@@H](NC(=O)[C@H](Cc1ccccc1)NC(=O)[C@@H](NC(=O)CNC(=O)[C@H](CCC(N)=O)NC(=O)C(C)(C)NC(=O)[C@@H](N)Cc1c[nH]cn1)[C@@H](C)O)[C@@H](C)O)C(=O)N[C@@H](CC(=O)O)C(=O)N[C@@H](C)C(=O)N[C@@H](CCCNC(=N)N)C(=O)N[C@@H](CCCNC(=N)N)C(=O)N[C@@H](C)C(=O)N[C@@H](CCCNC(=N)N)C(=O)N[C@@H](CC(=O)O)C(=O)N[C@@H](Cc1ccccc1)C(=O)N[C@H](C(=O)N[C@@H](CCC(N)=O)C(=O)N[C@@H](Cc1c[nH]c2ccccc12)C(=O)N[C@@H](CC(C)C)C(=O)N[C@@H](CC(C)C)C(=O)N[C@@H](CC(N)=O)C(=O)N[C@@H](CCCCNC(=O)CC[C@H](NC(=O)CC[C@H](NC(=O)COCCOCCNC(=O)COCCOCCNC(=O)CC[C@H](NC(=O)CCCCCCCCCCCCCCCCC(=O)O)C(=O)O)C(=O)O)C(=O)O)C(N)=O)C(C)C [Example 65] (H-H[Aib]QGTFTSDLSKYLDARRARDFVQWLLNK([γGlu-γGlu-AEEA-AEEA-γGlu-C18 diacid])-NH2; N-terminus assumed)
5,45,"CC(C)C[C@H](NC(=O)[C@H](Cc1ccc(O)cc1)NC(=O)[C@H](CCCCN)NC(=O)[C@H](CO)NC(=O)[C@H](CC(C)C)NC(=O)[C@H](CC(=O)O)NC(=O)[C@H](CO)NC(=O)[C@@H](NC(=O)[C@H](Cc1ccccc1)NC(=O)[C@@H](NC(=O)CNC(=O)[C@H](CCC(N)=O)NC(=O)C(C)(C)NC(=O)[C@@H](N)Cc1c[nH]cn1)[C@@H](C)O)[C@@H](C)O)C(=O)N[C@@H](CC(=O)O)C(=O)N[C@@H](C)C(=O)N[C@@H](CCCNC(=N)N)C(=O)N[C@@H](CCCNC(=N)N)C(=O)N[C@@H](C)C(=O)N[C@@H](CCCNC(=N)N)C(=O)N[C@@H](CC(=O)O)C(=O)N[C@@H](Cc1ccccc1)C(=O)N[C@H](C(=O)N[C@@H](CCC(N)=O)C(=O)N[C@@H](Cc1c[nH]c2ccccc12)C(=O)N[C@@H](CC(C)C)C(=O)N[C@@H](CC(C)C)C(=O)N[C@@H](CO)C(=O)N[C@@H](CCCCNC(=O)CC[C@H](NC(=O)CC[C@H](NC(=O)COCCOCCNC(=O)COCCOCCNC(=O)CC[C@H](NC(=O)CCCCCCCCCCCCCCCCC(=O)O)C(=O)O)C(=O)O)C(=O)O)C(N)=O)C(C)C [Example 66, N^ε29-[(4S)-4-carboxy-4-[[(4S)-4-carboxy-4-[[2-[2-[2-[[2-[2-[2-[[(4S)-4-carboxy-4-(17-carboxyheptadecanoylamino)butanoyl]amino]ethoxy]ethoxy]acetyl]amino]ethoxy]ethoxy]acetyl]amino]butanoyl]amino]butanoyl]-[Aib2,Leu10,Ala16,Arg20,Leu27,Ser28,Lys29]-Glucagon amide] (H-H[Aib]QGTFTSDLSKYLDARRARDFVQWLLSK([γGlu-γGlu-AEEA-AEEA-γGlu-C18 diacid])-NH2; N-terminus assumed)"
4,45,"CC(C)C[C@H](NC(=O)[C@H](Cc1ccc(O)cc1)NC(=O)[C@H](CCCCN)NC(=O)[C@H](CO)NC(=O)[C@H](CC(C)C)NC(=O)[C@H](CC(=O)O)NC(=O)[C@H](CO)NC(=O)[C@@H](NC(=O)[C@H](Cc1ccccc1)NC(=O)[C@@H](NC(=O)CNC(=O)[C@H](CCC(N)=O)NC(=O)C(C)(C)NC(=O)[C@@H](N)Cc1c[nH]cn1)[C@@H](C)O)[C@@H](C)O)C(=O)N[C@@H](CCC(=O)O)C(=O)N[C@@H](CO)C(=O)N[C@@H](CCCNC(=N)N)C(=O)N[C@@H](CCCNC(=N)N)C(=O)N[C@@H](C)C(=O)N[C@@H](CCCNC(=N)N)C(=O)N[C@@H](CCC(=O)O)C(=O)N[C@@H](Cc1ccccc1)C(=O)N[C@H](C(=O)N[C@@H](CCC(N)=O)C(=O)N[C@@H](Cc1c[nH]c2ccccc12)C(=O)N[C@@H](CC(C)C)C(=O)N[C@@H](CC(C)C)C(=O)N[C@@H](CCCCNC(=O)CC[C@H](NC(=O)CC[C@H](NC(=O)[C@H](CO)NC(=O)[C@H](CCC(=O)O)NC(=O)[C@H](CO)NC(=O)CC[C@H](NC(=O)CC[C@H](NC(=O)CCCCCCCCCCCCCCCCC(=O)O)C(=O)O)C(=O)O)C(=O)O)C(=O)O)C(=O)N[C@H](C(N)=O)[C@@H](C)O)C(C)C [Example 67, N^ε28-[(4S)-4-carboxy-4-[[(4S)-4-carboxy-4-[[(2S)-2-[[(2S)-4-carboxy-2-[[(2S)-2-[[(4S)-4-carboxy-4-[[(4S)-4-carboxy-4-(17-carboxyheptadecanoylamino)butanoyl]amino]butanoyl]amino]-3-hydroxypropanoyl]amino]butanoyl]amino]-3-hydroxypropanoyl]amino]butanoyl]amino]butanoyl]-[Aib2,Leu10,Glu15,Arg20,Glu21,Leu27,Lys28]-Glucagon amide] (H-H[Aib]QGTFTSDLSKYLESRRAREFVQWLLK([γGlu-γGlu-Ser-Glu-Ser-γGlu-γGlu-C18 diacid])T-NH2; N-terminus assumed)"
